Laboratory results taken from PubChem BioAssay AID602464 (Sanford-Burnham Center for Chemical Genomics, 2012).
Calls of active or inactive are those of the source. No stated cut-off is given here; in the data, active means IC50 below about 20 µM; inactive means the rest.

Each compound was assayed on Gli-responsive luciferase reporter cells, SUFU pathway antagonism (assay: blockers of Gli reporter signaling – cell-based, luciferase luminescence, uHTS hits, dose response (AID 602464)).

| SMILES | IC50 |
| --- | --- |
| CC(CC(=O)N1CCN(c2cccc(Cl)c2)CC1)S(=O)(=O)c1ccc2c(c1)NC(=O)CO2 (stereo not given) | 6.43 µM |
| CC1CN(S(=O)(=O)c2ccc(C(=O)Nc3nc(-c4cc5ccccc5o4)cs3)cc2)CC(C)O1 (stereo not given) | 1.26 µM |
| Brc1ccc(-[n+]2c(-c3ccccc3)cc(-c3ccccc3)cc2-c2ccccc2)cc1 | 4.82 µM |
| CC1Sc2n(c3ccccc3[n+]2C)N=C1c1ccccc1 (stereo not given) | 4.71 µM |
| C/C(=N\NC(=O)C(=O)Nc1ccc(C)c(Cl)c1)c1ccncc1 | 1.51 µM |
| CCCN1CCC(=O)N([C@H](CSc2ccc(OC)cc2)Cc2ccccc2)CC1 | 9.77 µM |
| CCCn1c(SCC(=O)Nc2nc(-c3ccc(OC)cc3)cs2)nc2c1c(=O)n(C)c(=O)n2C | > 20 µM (inactive) |
| O=C(COC(=O)c1ccc2[nH]c3c(c2c1)CCCC3)Nc1ccccc1Cl | > 20 µM (inactive) |
| CC(C)(C)[C@H]1COC(=O)[C@H](NC(=O)OCC2c3ccccc3-c3ccccc32)C/C=C\C[C@@H](CC(=O)N(CCO)Cc2ccccc2)C(=O)N1 | 11.8 µM |
| O=C(c1cc2nc(-c3ccc(F)cc3)cc(C(F)(F)F)n2n1)N1CCCCC1c1cccnc1 (stereo not given) | > 20 µM (inactive) |
| Cc1nc2ccccc2n1Cc1ccc(Br)cc1 | 4.73 µM |
| O=C(c1cc2sccc2n1Cc1ccc(F)cc1)N1CCN(c2nc3ccccc3s2)CC1 | 4.32 µM |
| COCCNC(=O)CSCc1nc(-c2ccc(SC)cc2)oc1C | 8.46 µM |
| O=C(C[n+]1cc(-c2ccccc2)n2c1CCCCC2)c1ccc(Cl)cc1 | > 20 µM (inactive) |
| COc1ccc(N2CCN(c3ncnc4c3[nH]c3ccccc34)CC2)cc1 | 2.52 µM |
| Cc1ccc(NC(=O)COc2ccccc2C(N)=O)cc1S(=O)(=O)N1CCCCCC1 | 12.3 µM |
| CCCCn1c(CN(C)Cc2ccccc2)nc2c1c(=O)n(C)c(=O)n2C | 6.85 µM |
| O=C(C[C@H]1C/C=C\C[C@@H](NC(=O)OCC2c3ccccc3-c3ccccc32)C(=O)O[C@@H](c2ccccc2)CNC1=O)N[C@H](CO)Cc1ccccc1 | 7.67 µM |
| CC(=O)Nc1cccc(OCC(=O)/C=C2\N(C)c3ccccc3C2(C)C)c1 | 4.73 µM |
| CC(C)(C)[C@H]1COC(=O)[C@H](NC(=O)OCC2c3ccccc3-c3ccccc32)C/C=C\C[C@@H](CC(=O)N[C@@H](CO)Cc2ccccc2)C(=O)N1 | 11.9 µM |
| NC(=O)c1c(-c2ccc(Cl)cc2Cl)csc1NC(=O)Cc1ccccc1 | 7.97 µM |
| CCCC(C)C(=O)Nc1nc(C)c(-c2csc(Nc3ccc(Cl)cc3)n2)s1 (stereo not given) | 6.48 µM |
| CCN1CCCC1CNc1ncnc2c1[nH]c1ccc(Cl)cc12 (stereo not given) | > 20 µM (inactive) |
| CCn1c(/C=C/Nc2ccccc2)[n+](CC)c2cc(Cl)c(Cl)cc21 | 7.87 µM |
| CC(Sc1nc2ccccc2c(=O)n1C)C(=O)NC1CCCCC1C (stereo not given) | 11.5 µM |
| CCC(=O)c1ccc(OCC(O)Cn2c(C)nc3ccccc32)cc1 (stereo not given) | 7.89 µM |
| O=C(N[C@@H]1C/C=C\C[C@@H](CC(=O)N(CCO)Cc2ccccc2)C(=O)N[C@@H](c2ccccc2)COC1=O)OCC1c2ccccc2-c2ccccc21 | 11.9 µM |

| SMILES | IC50 |
| --- | --- |
| CCOc1ccc(-c2nc(CSCC(=O)NCC3CCCO3)c(C)o2)cc1 (stereo not given) | 1.47 µM |
| COc1ccc(CNCC(O)COc2cccc3c2OC(C)(C)C3)cc1 (stereo not given) | 5.99 µM |
| O=C(Nc1ccncc1)c1ccc(-c2ccccc2)cc1 | 6.43 µM |
| c1ccc(-c2cn(-c3ccccc3)c3[n+]2CCS3)cc1 | 6.57 µM |
| Cc1ccc(O)c(NC(=O)COc2cc(C)ccc2C)c1 | 3.34 µM |
| Cc1ccc(S(=O)(=O)N2CCN(C(=O)c3ccc(S(=O)(=O)N4CCCC4)cc3)CC2)cc1 | > 20 µM (inactive) |
| COc1ccc(-c2nn(-c3ccccc3)cc2/C=N/NC(=O)c2ccc(Br)o2)cc1 | 5.42 µM |
| O=C(N[C@H]1C/C=C\C[C@@H](CC(=O)N(CCO)Cc2ccccc2)C(=O)N[C@H](Cc2c[nH]c3ccccc23)COC1=O)OCC1c2ccccc2-c2ccccc21 | 10.4 µM |
| CCOc1ccc(-c2cc(C)[n+](CCO)c(-c3ccc(OCC)cc3)c2)cc1 | 14.8 µM |
| C=CCOc1nc2c(c(=O)n(C)c(=O)n2C)n1Cc1ccc(Cl)cc1Cl | 10.3 µM |
| CCN(CC)C(=O)c1ccc(S(=O)(=O)N2CCC(c3nc4ccccc4s3)CC2)cc1 | 8.85 µM |
| COc1ccccc1C(=O)NC(=S)/C=C1/N(C)c2ccccc2C1(C)C | 8.55 µM |
| O=C(NCCNc1ccnc2cc(Cl)ccc12)c1ccccc1F | 8.19 µM |
| Cc1nn(C)c(C)c1/C=C/C(=O)c1ccc(Cl)cc1Cl | 7.53 µM |
| CCCOc1ccc(Br)cc1CSC(=N)N | 9.84 µM |
| CC(=O)/C(=N\Nc1ccc(Cl)cc1Cl)Sc1cccc2cccnc12 | 1.12 µM |
| CC(C)Cc1ccc(C(C)C(=O)Nc2cccnc2)cc1 (stereo not given) | 13 µM |
| CC(=O)c1c(C)[nH]c(C(=O)OCC(=O)Nc2ccc(C)cc2[N+](=O)[O-])c1C | 0.535 µM |
| CCOC(=O)c1c(NC(=O)C(=O)N/N=C/c2ccccc2O)sc2c1CCCCC2 | 4.39 µM |
| CC(NC(=O)c1cc2c(=O)n3ccccc3nc2n(CC2CCCO2)c1=N)c1ccccc1 (stereo not given) | > 20 µM (inactive) |
| O=C(Cn1cnc2ccccc21)Nc1cccc(S(=O)(=O)N2CCCC2)c1 | 9.03 µM |
| C[C@@H]1COC(=O)[C@H](NC(=O)OCC2c3ccccc3-c3ccccc32)C/C=C\C[C@@H](CC(=O)N[C@@H](CO)Cc2ccccc2)C(=O)N1 | 7.8 µM |
| CN(C)CCn1c2ccccc2c2nc3ccc([N+](=O)[O-])cc3cc21 | 7.54 µM |
| O=S(=O)(c1ccc2c(c1)nc(COc1ccc(Cl)cc1)n2CC1CCCO1)N1CCOCC1 (stereo not given) | 3.85 µM |
| CCn1c(C)nc2cc(-c3nnc(-c4c(-c5ccccc5)noc4C)o3)ccc21 | 7.36 µM |
| CCCc1c(CC)c(=N)c2ccccc2n1C | 12.9 µM |
| COc1ccc(Nc2nc(N3CCOCC3)nc(N3CCOCC3)n2)c(OC)c1 | > 20 µM (inactive) |

| SMILES | IC50 |
| --- | --- |
| CC(C)(C)OC(=O)N1CCC(c2cc(-c3cccs3)n[nH]2)CC1 | > 20 µM (inactive) |
| Cc1ccc(S(=O)(=O)N2CCN(C(=O)C3CCN(c4ncnc5sc(C)c(C)c45)CC3)CC2)c(C)c1 | 7.57 µM |
| CCOC(=O)N1CCN(C(=O)c2ccc(CSc3ccc(Cl)cc3)cc2)CC1 | 10.8 µM |
| CCN(CC)S(=O)(=O)c1ccc(C)c(NC(=S)N2CCN(Cc3ccc4c(c3)OCO4)CC2)c1 | 12.2 µM |
| Cc1csc2ncnc(NCCc3ccccn3)c12 | 7.09 µM |
| COc1cc(NS(=O)(=O)c2ccc(C)cc2C)cc(OC)c1OC | 6.71 µM |
| COc1cccc2nc3c(C(=O)NCCN(C)C)cccc3cc12 | 3.02 µM |
| Cc1sc2ncnc(NCc3cccs3)c2c1C | 8.05 µM |
| Cc1ccc(S(=O)(=O)NCCC2=CCCCC2)cc1C(N)=O | 8.71 µM |
| c1ccc2c(c1)OCC(CNc1ncnc3sccc13)O2 (stereo not given) | 0.887 µM |
| Cc1ccc(C(=O)N2CCN3C(=O)c4ccccc4C23c2ccc(Cl)cc2)cc1 (stereo not given) | 4.95 µM |
| CC(C)Cn1c(N)c(C(=O)COC(=O)C2Cc3ccccc3CN2S(C)(=O)=O)c(=O)n(C)c1=O (stereo not given) | > 20 µM (inactive) |
| COc1ccc(NS(=O)(=O)c2cccc(NC(=O)c3ccc(S(=O)(=O)N4CCCCCC4)cc3)c2)cc1 | 7.51 µM |
| CCOc1ccc(OCc2ccc(C(=O)NN=Cc3ccc[nH]3)cc2)cc1 | 2.44 µM |
| CC1=CC(C)C2(COC(c3ccc[n+](C)c3)OC2)C(C)C1 (stereo not given) | 17.9 µM |
| CCC(C)CCN1C(N(C)C)=NC[C@@H]1CC(C)C (stereo not given in full) | 7.98 µM |
| COc1ccc(-c2c(C#N)c(N)nc3c2CCc2ccccc2-3)cc1OC | 6.7 µM |
| CCCCCn1c(=N)n(CC(O)COc2ccccc2OC)c2ccccc21 (stereo not given) | 8.43 µM |
| Cc1sc2ncnc(NCC(C)(C)N3CCOCC3)c2c1C | 3.85 µM |
| Cc1ccc(NC(=O)/C=C/c2ccco2)cc1S(=O)(=O)N1CCCCCC1 | 2.12 µM |
| COCCNc1nc2c(c(=O)n(C)c(=O)n2C)n1Cc1cccc(C)c1 | 7.26 µM |
| CCCCCCC[N+](CC)(CC)CCCCc1ccc(Cl)cc1 | 5.6 µM |
| COc1ccc(CNc2cc(C)nc3ncnn23)c(OC)c1 | 10.6 µM |
| COCCNc1nc2c(c(=O)n(C)c(=O)n2C)n1Cc1cccc(C(F)(F)F)c1 | 3.55 µM |
| Cc1nnsc1C(=O)NC1CCCc2c1cnn2-c1ccc(F)cc1F (stereo not given) | 8.15 µM |
| CCCCNc1c(-c2ccc(OC)c(Sc3ccc(OC)cc3)c2)nc2ccccn12 | 6.31 µM |
| CC(=O)c1cn(CCOc2ccccc2C)c2ccccc12 | 8.58 µM |

| SMILES | IC50 |
| --- | --- |
| Cc1cc(=O)[nH]c(SCC(=O)/C=C2\N(C)c3ccccc3C2(C)C)n1 | 5.13 µM |
| Cc1sc2ncnc(NCC(O)c3ccc([N+](=O)[O-])cc3)c2c1C (stereo not given) | 4.75 µM |
| CC(C)(C)C1CCC(OC(=O)C[N+]2(C)CCCCC2)CC1 (stereo not given) | > 20 µM (inactive) |
| Cc1ccc(-c2csc(NC(=O)c3c(C)noc3C)n2)s1 | 5.53 µM |
| c1ccc(-c2c[n+]3c(n2-c2ccccc2)CCC3)cc1 | > 20 µM (inactive) |
| CCN(CC)S(=O)(=O)c1ccc(S(=O)(=O)N2CCCC(C(=O)NC3CC3)C2)cc1 (stereo not given) | 7.52 µM |
| CCOC(=O)CSc1c(-c2cccs2)[nH]c2ccccc12 | 3.69 µM |
| C=CCOc1nc2c(c(=O)n(C)c(=O)n2C)n1Cc1ccc(Cl)cc1 | 7.97 µM |
| O=C1N/C(=C\c2ccc(O)cc2)C(O)=C1C=NCc1ccccc1 | 4.73 µM |
| Cc1nc2ccccc2n1CC(=O)NC(C)C1CC2CCC1C2 (stereo not given) | 7.93 µM |
| CCOC(=O)c1c(NC(=O)COc2cccc3c2CCN(C)C3=O)sc2c1CCC2 | 8.42 µM |
| CCn1c(/C=C/Nc2ccccc2)[n+](CC)c2ccc(Cl)cc21 | 18.1 µM |
| COc1cccc(CN(C)C(=O)c2cc(COc3ccc4ncccc4c3)on2)c1 | 5.39 µM |
| COc1ccc(-c2c[n+](CC(=O)c3ccccc3)c3n2CCCCC3)cc1 | 14.1 µM |
| O=C(Nc1ccc(C(F)(F)F)cc1)C1CCN(S(=O)(=O)c2ccc(N3CCCC3=O)cc2)CC1 | 3.22 µM |
| Cc1cc(/C=C2/SC(=S)N(c3ccc([N+](=O)[O-])cc3)C2=O)c(C)n1-c1cccnc1 | 0.663 µM |
| CCC(C)[C@H]1CN=C(N)N1CCc1cccc2ccccc12 (stereo not given in full) | 6.63 µM |
| COc1ccccc1-n1c(-c2ccccc2)c[n+]2c1CCc1ccccc1-2 | 3.63 µM |
| CN1/C(=C\C=N\NC(=O)c2ccc(O)cc2)C(C)(C)c2ccccc21 | 4.34 µM |
| CC[N+](C)(CC)CCC(c1ccccc1)C1CCCCC1 (stereo not given) | 13.1 µM |
| CC[N+]1=C(C)C(C)(C)c2cc(C)ccc21 | 2.06 µM |
| C=C(C)CSc1nc2sc3c(c2c(=O)n1C1CCCCC1)CCN(C)C3 | 8.67 µM |
| COc1ccc(-c2noc(CCCCC(=O)N3CCN(c4cc(C)ccc4C)CC3)n2)cc1 | 4 µM |
| CNS(=O)(=O)c1cccc(C(=O)OCC(=O)c2cc(C)n(CC3CCCO3)c2C)c1 (stereo not given) | 0.735 µM |
